Experiment [1] has as its target T1, Thyroid hormone receptor beta (Homo sapiens, UniProt P10828).
T1 sequence (P10828 whole entry): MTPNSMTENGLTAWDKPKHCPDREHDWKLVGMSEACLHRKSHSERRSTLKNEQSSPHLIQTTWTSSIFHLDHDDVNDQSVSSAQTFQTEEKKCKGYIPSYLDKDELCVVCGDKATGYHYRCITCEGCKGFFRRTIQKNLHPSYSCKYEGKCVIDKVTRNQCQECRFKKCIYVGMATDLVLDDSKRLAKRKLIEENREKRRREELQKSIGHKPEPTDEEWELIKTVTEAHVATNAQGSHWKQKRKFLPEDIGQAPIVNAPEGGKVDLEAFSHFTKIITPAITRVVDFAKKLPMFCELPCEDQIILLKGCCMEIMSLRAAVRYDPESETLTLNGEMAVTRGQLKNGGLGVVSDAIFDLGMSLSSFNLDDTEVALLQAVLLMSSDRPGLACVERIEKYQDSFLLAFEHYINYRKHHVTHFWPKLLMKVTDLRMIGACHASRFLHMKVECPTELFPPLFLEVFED
Briefly: Binding affinity at human TRbeta1.

For the next experiment, the species on record is Homo sapiens. Briefly: Selectivity for human TR-alpha-1 to human TRbeta1.
In a further experiment the target is T2, Androgen receptor (Homo sapiens, UniProt P10275).
T2 sequence (P10275 whole entry): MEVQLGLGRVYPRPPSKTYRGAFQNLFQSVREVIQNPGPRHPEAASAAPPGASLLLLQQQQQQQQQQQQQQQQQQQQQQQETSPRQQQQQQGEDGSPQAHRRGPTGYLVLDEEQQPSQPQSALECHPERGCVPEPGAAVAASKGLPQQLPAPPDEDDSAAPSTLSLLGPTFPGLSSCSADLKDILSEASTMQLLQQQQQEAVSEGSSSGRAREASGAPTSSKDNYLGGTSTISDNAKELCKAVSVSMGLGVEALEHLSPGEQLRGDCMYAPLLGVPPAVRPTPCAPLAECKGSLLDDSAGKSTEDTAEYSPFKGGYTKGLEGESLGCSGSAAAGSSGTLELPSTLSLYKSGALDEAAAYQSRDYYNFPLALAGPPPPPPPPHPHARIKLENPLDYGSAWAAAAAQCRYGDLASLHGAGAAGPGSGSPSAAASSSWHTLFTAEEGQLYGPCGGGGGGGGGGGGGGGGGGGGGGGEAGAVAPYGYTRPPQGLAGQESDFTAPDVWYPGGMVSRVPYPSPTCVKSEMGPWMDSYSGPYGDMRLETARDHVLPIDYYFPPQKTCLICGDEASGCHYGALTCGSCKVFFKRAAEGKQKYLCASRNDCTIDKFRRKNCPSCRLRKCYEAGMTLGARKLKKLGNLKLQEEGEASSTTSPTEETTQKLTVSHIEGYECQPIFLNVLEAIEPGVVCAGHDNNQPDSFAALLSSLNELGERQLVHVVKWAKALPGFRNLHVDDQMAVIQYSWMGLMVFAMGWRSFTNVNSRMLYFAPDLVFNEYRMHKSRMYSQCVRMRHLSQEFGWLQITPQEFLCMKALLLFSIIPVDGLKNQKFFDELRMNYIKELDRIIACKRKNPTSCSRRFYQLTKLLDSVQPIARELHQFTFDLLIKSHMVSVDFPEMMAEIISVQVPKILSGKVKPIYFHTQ
Briefly: Binding affinity at AR.

Experiment [2] has as its target T3, Thyroid hormone receptor alpha (Homo sapiens, UniProt P10827).
T3 sequence (P10827 whole entry): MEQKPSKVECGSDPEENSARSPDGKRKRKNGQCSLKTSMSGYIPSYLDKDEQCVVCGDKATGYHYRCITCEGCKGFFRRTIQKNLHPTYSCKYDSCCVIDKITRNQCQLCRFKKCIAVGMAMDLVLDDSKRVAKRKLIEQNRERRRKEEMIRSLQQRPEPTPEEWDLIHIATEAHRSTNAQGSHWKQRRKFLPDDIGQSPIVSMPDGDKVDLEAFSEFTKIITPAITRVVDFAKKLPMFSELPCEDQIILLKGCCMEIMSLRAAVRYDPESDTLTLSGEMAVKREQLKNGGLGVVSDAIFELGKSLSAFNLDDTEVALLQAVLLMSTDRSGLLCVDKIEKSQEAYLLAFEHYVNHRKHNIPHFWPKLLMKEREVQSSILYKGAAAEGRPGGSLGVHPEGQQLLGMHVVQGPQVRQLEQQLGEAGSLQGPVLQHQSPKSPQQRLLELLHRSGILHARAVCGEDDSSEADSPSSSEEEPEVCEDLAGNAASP
Briefly: (§1) Antagonist activity at human TR-alpha-1 expressed in CHO cells assessed as TRAF-alpha-1-driven gene transactivation by alkaline phosphatase reporter gene assay. Type of experiment: functional, cell-based. A general note: In a reporter assay the amount or activity of a reporter protein is the signal.

In experiment [3] the target is T4, Thyroid hormone receptor alpha (Homo sapiens) (UniProt P10827).
T4 sequence (whole entry): T3 sequence (P10827 whole entry)
The description is as §1. Format: functional, cell-based. Further details: scale not given: the % may be the effect or the level left.

Experiment [4] addresses T1, Thyroid hormone receptor beta.
Description: Antagonist activity at human TR-beta-1 expressed in CHO cells assessed as TRAF-beta-1-driven gene transactivation by alkaline phosphatase reporter gene assay
A further experiment addresses T5, Estrogen receptor (Homo sapiens, UniProt P03372).
T5 sequence (P03372 whole entry): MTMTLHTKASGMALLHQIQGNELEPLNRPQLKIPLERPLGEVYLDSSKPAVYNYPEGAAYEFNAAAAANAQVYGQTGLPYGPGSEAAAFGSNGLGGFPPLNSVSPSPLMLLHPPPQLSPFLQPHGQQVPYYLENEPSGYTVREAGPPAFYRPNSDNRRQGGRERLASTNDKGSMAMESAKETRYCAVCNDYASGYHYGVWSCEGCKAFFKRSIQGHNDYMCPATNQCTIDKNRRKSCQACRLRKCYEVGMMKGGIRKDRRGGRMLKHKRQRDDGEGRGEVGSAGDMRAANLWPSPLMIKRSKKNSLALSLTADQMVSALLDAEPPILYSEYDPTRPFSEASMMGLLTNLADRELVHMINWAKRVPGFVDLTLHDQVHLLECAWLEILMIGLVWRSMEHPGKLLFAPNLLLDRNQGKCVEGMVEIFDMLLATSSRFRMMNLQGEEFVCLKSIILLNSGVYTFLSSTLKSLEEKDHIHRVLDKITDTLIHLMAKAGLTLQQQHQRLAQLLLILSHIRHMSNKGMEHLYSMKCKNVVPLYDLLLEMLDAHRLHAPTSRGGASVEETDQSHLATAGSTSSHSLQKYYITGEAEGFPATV
Briefly: Binding affinity at ERalpha.

Each structure is given as a SMILES string.

Usually IC50 stands for the concentration that gives 50% inhibition. As to `O=C(O)CCc1cc(Br)c(OCc2cccc(Br)c2)c(Br)c1`, the IC50 in experiment [1] worked out at 60 nM; at Androgen receptor it was 7700 nM; in experiment [2], 380 nM; in experiment [4], 230 nM; on Estrogen receptor, 29000 nM. Also, in the experiment filed under Homo sapiens, the Ratio IC50 was determined as 0.97. For the same molecule, in experiment [3], the Activity is 80%.

The values above are taken from ChEMBL document CHEMBL1139115, “Thyroid receptor ligands. Part 7: Indirect antagonists of the thyroid hormone receptor with improved affinity” (Bioorg Med Chem Lett, 2007).
